# According to PMC9863562, “Design, Synthesis, and Biological Evaluation of 2-Mercaptobenzoxazole Derivatives as Potential Multi-Kinase Inhibitors” (Pharmaceuticals, 2023):
# Target: T1, Human EGFR (Homo sapiens, UniProt P00533)
# T1 construct: purchased
# Assay: In vitro EGFR enzyme assay (ELISA kit)
# Format: biochemical
# Method: Human CDK2, EGFR, HER2, and VEGFR-2 ELISA kits (Enzyme-Linked-Immunosorbent Serologic Assay) were used during this evaluation. At first, specified antibody proteins were added separately to a 96-well plate, then 0.1 mL of the standard solution or the evaluated molecule was added; these were then incubated for 2.5 h at RT. After rinsing, 100 μL of the ready-made biotin antibody protein was added, then incubated for one extra hour at room temperature and, finally, washed. Next, 100 μL of streptavidin solution was added, incubated at room temperature for 45 min, and then washed. Next, 100 μL of the TMB substrate reagent was added and incubated for 0.5 h at RT, followed by adding 50 μL of the stop solution. The absorbance of the ELISA plate was promptly measured at 450 nm using the ELISA plate reader.
# T1 sequence (P00533 25-1210): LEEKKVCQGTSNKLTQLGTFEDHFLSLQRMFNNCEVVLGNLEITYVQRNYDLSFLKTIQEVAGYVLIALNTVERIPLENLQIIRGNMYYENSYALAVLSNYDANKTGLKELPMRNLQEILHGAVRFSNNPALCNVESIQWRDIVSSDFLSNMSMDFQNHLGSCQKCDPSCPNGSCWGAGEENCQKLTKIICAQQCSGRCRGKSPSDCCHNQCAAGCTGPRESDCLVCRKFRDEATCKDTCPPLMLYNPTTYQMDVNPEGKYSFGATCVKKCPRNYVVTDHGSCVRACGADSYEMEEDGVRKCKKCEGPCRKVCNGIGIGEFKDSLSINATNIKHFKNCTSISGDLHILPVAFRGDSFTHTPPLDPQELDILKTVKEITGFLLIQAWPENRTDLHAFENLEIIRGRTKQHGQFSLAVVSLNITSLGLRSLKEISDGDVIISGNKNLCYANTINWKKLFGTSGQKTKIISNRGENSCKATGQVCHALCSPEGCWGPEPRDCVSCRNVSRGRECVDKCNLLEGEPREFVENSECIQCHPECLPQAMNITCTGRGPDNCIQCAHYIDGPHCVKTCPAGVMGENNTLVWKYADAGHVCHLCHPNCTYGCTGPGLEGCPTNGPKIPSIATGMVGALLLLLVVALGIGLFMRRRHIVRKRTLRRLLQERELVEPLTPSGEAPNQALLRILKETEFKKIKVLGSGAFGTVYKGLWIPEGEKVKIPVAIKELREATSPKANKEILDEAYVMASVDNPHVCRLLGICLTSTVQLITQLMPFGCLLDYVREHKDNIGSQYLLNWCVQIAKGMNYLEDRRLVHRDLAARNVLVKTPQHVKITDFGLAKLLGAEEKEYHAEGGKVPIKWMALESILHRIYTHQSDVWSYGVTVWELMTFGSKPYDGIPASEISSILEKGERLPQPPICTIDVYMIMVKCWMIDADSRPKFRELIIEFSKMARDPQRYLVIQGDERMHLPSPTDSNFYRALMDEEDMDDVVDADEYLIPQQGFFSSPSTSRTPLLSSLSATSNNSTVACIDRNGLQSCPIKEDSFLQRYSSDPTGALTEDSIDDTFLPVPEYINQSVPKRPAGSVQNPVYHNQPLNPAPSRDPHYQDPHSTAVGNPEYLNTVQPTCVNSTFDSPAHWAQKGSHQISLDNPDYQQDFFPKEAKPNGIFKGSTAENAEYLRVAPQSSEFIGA
smiles,measurement,value
"O=C(CSc1nc2ccccc2o1)NN=Cc1ccc[nH]1 (mixture of isomers) [Compound 6b, (E/Z)-N′-((1H-pyrrol-2-yl)methylene)-2-(benzo[d]oxazol-2-ylthio)acetohydrazide]",IC50,279 ± 17 nM
